Results as given in patent US11245111B2, “Stable positive side material for all-organic flow battery” (UNIVERSITY OF SOUTHERN CALIFORNIA, priority 2017, dated 2022).

Assay: Proto-desulfonation studies (heat treatment in sulfuric acid)
Assay type: physicochemical
Details: 1 M solution, 24 hours in 1M sulfuric acid at 60 degrees Celsius
Method: Proto-Desulfonation Studies.
We determined that the molecule was stable against proto-desulfonation, by heat treatment of 1 M solution of DHDMDS 24 hours in 1M sulfuric acid at 60 degrees Celsius. […] If decomposition occurred there would be the formation of a precipitate of an insoluble de-sulfonated material.

| stability against proto-desulfonation (decomposition products observed) | Structure (SMILES) |
| --- | --- |
| no decomposition products | Cc1c(O)c(C)c(S(=O)(=O)O)c(O)c1S(=O)(=O)O [DHDMDS, 2,5-dihydroxy-4,6-dimethylbenzene-1,3-disulfonic acid] |
| decomposes readily | Cc1cc(O)c(S(=O)(=O)O)c(C)c1O [DHDMBS, 2,5-dihydroxy-4,6-dimethylbenzene-1-sulfonic acid] |
